Laboratory results taken from article PMC6946680, “Modulation of brain cation-Cl^− cotransport via the SPAK kinase inhibitor ZT-1a” (Nature Communications, 2020).
Values joined by “and” are separate entries in the source; they are usually repeats but may differ in a detail not shown here. Identical values can stand only once. “Also recorded” adds a separate entry of the source.

Assays:
[1] = test system: mouse model of ischemic stroke (tMCAO); assay: Infarct volume and hemispheric swelling (TTC) 24 h after tMCAO; type: in vivo
mice = conditions: mouse, in vivo
Procedure: Post-stroke administration of Closantel in mice reduced ischemic cerebral infarction size and brain swelling in a dose-dependent manner. However, we detected Closantel toxicity in mice at higher doses (~25 mg/kg), consistent with reported adverse effects in humans, including weakness, visual impairment, and blindness[72],[73]. The in vitro nanomolar-potency pan-WNK-kinase inhibitor WNK463 was developed as an antihypertensive drug[74]. […] Although the causes of these adverse effects remain unclear, they also discouraged efficacy testing of WNK463 at higher doses.

NKCC1 = assay: 86Rb+ uptake assay for NKCC1 activity in HEK-293 cells; type: cell-based; parameters: key to 86Rb+ uptake: 86Rb+ uptake in CPM per mg protein; conditions: for 86Rb+ uptake: Fig 3b, NKCC1 + Bum (0.1 mM), replicates, listed as Bum
Procedure: (§1) Thirty-six hours post transfection, cells were exposed for 30 min to either control isotonic conditions or hypotonic low [Cl^−] conditions (to activate the SPAK/OSR1 pathway), and then treated for an additional 30 min in the same conditions with the indicated ZT-1a concentrations in the presence of 1 mM ouabain and 0.1 mM bumetanide. Ten-minute ^86Rb^+ uptake values were quantified by scintillation counting, normalized per mg protein for each condition, and plotted for both isotonic and hypotonic conditions. ***p < 0.001; **p < 0.01; *p < 0.05; ns—nonsignificant [by one-way ANOVA with post hoc testing (n = 6, error bars represent the mean ± SEM)]. b ^86Rb^+ uptake assays in the presence of ZT-1a measure transport activity of NKCC1. […] Thirty-six hours post transfection, cells were exposed for 30 min to either control isotonic conditions or hypotonic low [Cl^−] conditions (to activate the SPAK/OSR1 pathway), and then treated in the same conditions for an additional 30 min with 10 µM ZT-1a or 0.1 mM bumetanide (Bum) in the presence of 1 mM ouabain (Na^+/K^+-ATPase inhibitor). ^86Rb^+ uptake was allowed to proceed for 10 min and was then quantified by scintillation counting. ^86Rb^+ uptake CPMs were normalized per mg protein and plotted for both isotonic and hypotonic conditions. […] Thirty-six hours post transfection, cells were exposed for 30 min to either control isotonic conditions or hypotonic low [Cl^−] conditions (to activate the SPAK/OSR1 pathway), and then treated for an additional 30 min in the same conditions with the indicated ZT-1a concentrations in the presence of 1 mM ouabain. Ten-minute ^86Rb^+ uptake values were quantified by scintillation counting, normalized per mg protein for each condition, and plotted for both isotonic and hypotonic conditions. ***p < 0.001; **p < 0.01; *p < 0.05; ns—nonsignificant [by one-way ANOVA with post hoc testing (n = 6, error bars represent the mean ± SEM)].
(§2) This stimulating medium was then removed and replaced with isotonic medium containing inhibitors plus 2 µCi/ml ^86Rb^+. After incubation for 10 min at 37 °C, cells were rapidly washed three times with the respective ice-cold nonradioactive medium. Washed cells were lysed in 300 µl of ice-cold lysis buffer and ^86Rb^+ uptake was quantitated by liquid scintillation counting (PerkinElmer).

HEK-293 cells = assay: 86Rb+ uptake assay in empty-vector-transfected HEK-293 cells; type: cell-based, human; parameters: key: 86Rb+ uptake in CPM per mg protein; conditions: Fig 3b, Empty V + Bum (0.1 mM), ouabain, replicates, listed as Bum
Procedure: as §1, §2

human fibroblast cells = assay: Cell volume measurement (calcein-AM) under hyperosmotic stress, human fibroblasts; conditions: hypertonic 515 mOsm; BMT or ZT-1a
[2] = test system: mouse primary cortical neurons; assay: Cell volume measurement (calcein-AM) under hyperosmotic stress, primary cortical neurons

`CC(C)(C)NC(=O)c1cncn1C1CCN(c2ccc(-c3nnc(C(F)(F)F)o3)cn2)CC1` [WNK463] was tested, and the “Infarct volume (mm3)” value ([1]; Fig 9b, group WNK463, individual mice) was 59.9 mm3 and 47.6 mm3 and 101.01 mm3 and 100.21 mm3, the “Hemisphere swelling (%)” value ([1]; Fig 9c, group WNK463, individual mice) was 22.63% and 14.43% and 26.7% and 16.53% and the “infarct volume and hemispheric swelling (neuroprotection)” value ([1]; WNK463 2.5 mg/kg, 24 h post reperfusion, 2.5 mg/kg) was “reduced neither infarct volume nor hemispheric swelling; also recorded: not neuroprotective”. For the same compound, the “adverse effects in mice” value (mice) was “ataxia and breathing difficulties”.
With `CCCCNc1cc(C(=O)O)cc(S(N)(=O)=O)c1Oc1ccccc1` [bumetanide, reference compound] the “K+ flux of cells transfected with empty vector or NKCC1 wt cDNA” value (NKCC1; 0.1 mM bumetanide, isotonic or hypotonic low Cl−) was “significantly decreased K^+ flux”, the “86Rb+ uptake” value (NKCC1; Hypotonic low Cl-) was 9502.3 and 11310.4 and 9641.4 and 10421.5 and 10765.4 and 9047.7 and the “86Rb+ uptake” value (NKCC1; Isotonic control) was 1674.6 and 1506.3 and 1758.1 and 1840.4 and 1694.7 and 1729.5. The “86Rb+ uptake” value (HEK-293 cells; Hypotonic low Cl-) was 1107.6 and 1237.8 and 1137.4 and 1021.4 and 1200.9 and 1076.2, the “86Rb+ uptake” value (HEK-293 cells; Isotonic control) was 803.5 and 942.1 and 914.8 and 786.4 and 978.4 and 901.5 and the “regulatory volume increase (RVI) in human fibroblast cells” value (human fibroblast cells) was “absence of RVI”. For the same compound, the “Cell water (relative change)” value ([2]; Fig 5b trace, Time 1.00403) was 0.9843 relative change, the “Cell water (relative change)” value ([2]; Fig 5b trace, Time 2.00427) was 1.007 relative change and the “Cell water (relative change)” value ([2]; Fig 5b trace, Time 3.00425) was 1.002 relative change. The “Cell water (relative change)” value ([2]; Fig 5b trace, Time 4.00423) was 1.004 relative change, the “Cell water (relative change)” value ([2]; Fig 5b trace, Time 5.0042) was 1.002 relative change and the “Cell water (relative change)” value ([2]; Fig 5b trace, Time 6.00445) was 0.7352 relative change. The “Cell water (relative change)” value ([2]; Fig 5b trace, Time 7.00442) was 0.6913 relative change, the “Cell water (relative change)” value ([2]; Fig 5b trace, Time 8.00435) was 0.6745 relative change and the “Cell water (relative change)” value ([2]; Fig 5b trace, Time 9.00452) was 0.6038 relative change. The “Cell water (relative change)” value ([2]; Fig 5b trace, Time 10.0046) was 0.5839 relative change, the “Cell water (relative change)” value ([2]; Fig 5b trace, Time 11.0045) was 0.5893 relative change and the “Cell water (relative change)” value ([2]; Fig 5b trace, Time 12.0045) was 0.5422 relative change. For the same compound, the “Cell water (relative change)” value ([2]; Fig 5b trace, Time 13.0045) was 0.523 relative change, the “Cell water (relative change)” value ([2]; Fig 5b trace, Time 14.0045) was 0.4977 relative change and the “Cell water (relative change)” value ([2]; Fig 5b trace, Time 15.0047) was 0.5231 relative change. For the same compound, the “Cell water (relative change)” value ([2]; Fig 5b trace, Time 16.0047) was 0.4947 relative change, the “Cell water (relative change)” value ([2]; Fig 5b trace, Time 17.0047) was 0.4924 relative change and the “Cell water (relative change)” value ([2]; Fig 5b trace, Time 18.0047) was 0.4545 relative change. The “Cell water (relative change)” value ([2]; Fig 5b trace, Time 19.0049) was 0.4799 relative change, the “Cell water (relative change)” value ([2]; Fig 5b trace, Time 20.0049) was 0.4586 relative change and the “Cell water (relative change)” value ([2]; Fig 5b trace, Time 21.0048) was 0.4488 relative change. The “Cell water (relative change)” value ([2]; Fig 5b trace, Time 22.0048) was 0.4846 relative change, the “Cell water (relative change)” value ([2]; Fig 5b trace, Time 23.005) was 0.4766 relative change and the “Cell water (relative change)” value ([2]; Fig 5b trace, Time 24.0048) was 0.4819 relative change. For the same compound, the “Cell water (relative change)” value ([2]; Fig 5b trace, Time 25.005) was 0.4751 relative change, the “Cell water (relative change)” value ([2]; Fig 5b trace, Time 26.0053) was 0.6008 relative change and the “Cell water (relative change)” value ([2]; Fig 5b trace, Time 27.005) was 0.6725 relative change. The “Cell water (relative change)” value ([2]; Fig 5b trace, Time 28.005) was 0.7341 relative change, the “Cell water (relative change)” value ([2]; Fig 5b trace, Time 29.0051) was 0.8379 relative change and the “Cell water (relative change)” value ([2]; Fig 5b trace, Time 30.005) was 0.9275 relative change. The “Cell water (relative change)” value ([2]; Fig 5b trace, Time 31.005) was 0.981 relative change, the “Cell water (relative change)” value ([2]; Fig 5b trace, Time 32.005) was 1.048 relative change and the “Cell water (relative change)” value ([2]; Fig 5b trace, Time 33.0052) was 1.114 relative change. The “Cell water (relative change)” value ([2]; Fig 5b trace, Time 34.0052) was 1.157 relative change, the “Cell water (relative change)” value ([2]; Fig 5b trace, Time 35.0052) was 1.203 relative change and the “Cell water (relative change)” value ([2]; Time 1.0036) was 0.9714. The “Cell water (relative change)” value ([2]; Time 2.0038) was 1.0042, the “Cell water (relative change)” value ([2]; Time 3.0038) was 1.0139 and the “Cell water (relative change)” value ([2]; Time 4.0037) was 0.9906. For the same compound, the “Cell water (relative change)” value ([2]; Time 5.0037) was 1.0199, the “Cell water (relative change)” value ([2]; Time 6.0037) was 0.4476 and the “Cell water (relative change)” value ([2]; Time 7.0039) was 0.4233. The “Cell water (relative change)” value ([2]; Time 8.0040) was 0.4625, the “Cell water (relative change)” value ([2]; Time 9.0042) was 0.4683 and the “Cell water (relative change)” value ([2]; Time 10.0039) was 0.4401. For the same compound, the “Cell water (relative change)” value ([2]; Time 11.0039) was 0.4457, the “Cell water (relative change)” value ([2]; Time 12.0039) was 0.4507 and the “Cell water (relative change)” value ([2]; Time 13.0041) was 0.4223. For the same compound, the “Cell water (relative change)” value ([2]; Time 14.0041) was 0.4334, the “Cell water (relative change)” value ([2]; Time 15.0040) was 0.4490 and the “Cell water (relative change)” value ([2]; Time 16.0040) was 0.4184. The “Cell water (relative change)” value ([2]; Time 17.0040) was 0.3961, the “Cell water (relative change)” value ([2]; Time 18.0045) was 0.4241 and the “Cell water (relative change)” value ([2]; Time 19.0042) was 0.4174. For the same compound, the “Cell water (relative change)” value ([2]; Time 20.0042) was 0.4139, the “Cell water (relative change)” value ([2]; Time 21.0042) was 0.4233 and the “Cell water (relative change)” value ([2]; Time 22.0041) was 0.4177. For the same compound, the “Cell water (relative change)” value ([2]; Time 23.0044) was 0.4195, the “Cell water (relative change)” value ([2]; Time 24.0044) was 0.4281 and the “Cell water (relative change)” value ([2]; Time 25.0043) was 0.4058. The “Cell water (relative change)” value ([2]; Time 26.0043) was 0.5463, the “Cell water (relative change)” value ([2]; Time 27.0043) was 0.6294 and the “Cell water (relative change)” value ([2]; Time 28.0045) was 0.7254. The “Cell water (relative change)” value ([2]; Time 29.0044) was 0.8393, the “Cell water (relative change)” value ([2]; Time 30.0044) was 0.8966 and the “Cell water (relative change)” value ([2]; Time 31.0046) was 1.0008. For the same compound, the “Cell water (relative change)” value ([2]; Time 32.0046) was 1.0678, the “Cell water (relative change)” value ([2]; Time 33.0046) was 1.1243 and the “Cell water (relative change)” value ([2]; Time 34.0045) was 1.1834. The “Cell water (relative change)” value ([2]; Time 35.0045) was 1.2456, the “regulatory volume increase (RVI) response of primary cortical neurons” value ([2]; hyperosmotic stress 370 mOsm, ZT-1a 3 μM, BMT 10 μM) was “no RVI response” and the “cell shrinkage of primary cortical neurons” value ([2]; hypertonic 370 mOsm/kg H2O, earlier manuscript version quoted in peer-review file) was 86%. The “initial rate of cell shrinkage” value ([2]; hypertonic stress, earlier manuscript version quoted in peer-review file) was 45 ± 4 % vol/min and the “neurons exhibiting RVI / cells analysed” value ([2]; hypertonicity-mediated osmotic shrinkage, three cultures) was 0/46.
